Source: patent US20070128217A1 (priority 2003, published 2007)

Tests used:
[1] = test system: antibodies in sera from SARS patients (sera 1a, 1b, 2, 6, 37, 62, London, SARS-yellow, SARS-green); assay type: binding, human; design: Binding of serum 6 to linear peptides of protein X1 of SARS-CoV Urbani / Binding of serum 37 to linear peptides of protein X1 of SARS-CoV Urbani / Binding of serum 6 to looped/cyclic peptide (PEPSCAN-ELISA) / Binding of serum 37 to looped/cyclic peptide (PEPSCAN-ELISA) / Binding of serum 37 to looped/cyclic peptides of protein X1 of SARS-CoV Urbani / Binding of serum 6 to linear peptides of protein X2 / Binding of serum 37 to linear peptides of protein X2 / Binding of serum 37 to looped/cyclic peptides of protein X2 of SARS-CoV Urbani / Binding of serum 6 to linear peptides of protein M of SARS-CoV Urbani / Binding of serum 37 to linear peptides of protein M of SARS-CoV Urbani / Binding of serum 6 to looped/cyclic peptides of protein M of SARS-CoV Urbani / Binding of serum 37 to looped/cyclic peptides of protein M of SARS-CoV Urbani / Binding of serum 6 to linear peptides of protein X3 of SARS-CoV Urbani / Binding of serum 37 to linear peptides of protein X3 of SARS-CoV Urbani / Binding of serum 37 to looped/cyclic peptides of protein X3 of SARS-CoV Urbani / Binding of serum 6 to linear peptides of protein X4 of SARS-CoV Urbani / Binding of serum 37 to linear peptides of protein X4 of SARS-CoV Urbani / Binding of serum 37 to looped/cyclic peptides of protein X4 of SARS-CoV Urbani / Binding of serum 6 to linear peptides of protein X5 of SARS-CoV Urbani / Binding of serum 37 to linear peptides of protein X5 of SARS-CoV Urbani / Binding of serum 37 to looped/cyclic peptides of protein X5 of SARS-CoV Urbani / Binding of serum 6 to linear peptides of protein N of SARS-CoV Urbani / Binding of serum 37 to linear peptides of protein N of SARS-CoV Urbani / Binding of serum 6 to linear peptide (PEPSCAN-ELISA) / Binding of serum 1a to looped/cyclic peptides of protein N of SARS-CoV Urbani / Binding of serum 1b to looped/cyclic peptides of protein N of SARS-CoV Urbani / Binding of serum 2 to looped/cyclic peptides of protein N of SARS-CoV Urbani / Binding of serum 6 to looped/cyclic peptides of protein N of SARS-CoV Urbani / Binding of serum 37 to looped/cyclic peptides of protein N of SARS-CoV Urbani / Binding of serum 62 to looped/cyclic peptides of protein N of SARS-CoV Urbani / Binding of serum London to looped/cyclic peptides of protein N of SARS-CoV Urbani / Binding of serum SARS-green to looped/cyclic peptides of protein N of SARS-CoV Urbani: unit not given here
[2] = test system: control sera (pooled serum of ten healthy LUMC hospital workers; commercial negative donor pooled serum from the Dutch bloodbank); assay type: binding, human; design: Binding of Control serum LUMC to linear peptides / Binding of Control serum Blood-bank to linear peptides / Binding of Control serum LUMC to looped peptides / Binding of Control Serum Blood-Bank to Looped peptides / Binding of Control serum LUMC to linear peptides of the protein M of SARS-CoV Urbani / Binding of Control serum Blood-bank to linear peptides of the protein M of SARS-CoV Urbani / Binding of Control serum LUMC to looped peptides of the protein M of SARS-CoV Urbani / Binding of Control Serum Blood-Bank to Looped peptides of the protein M of SARS-CoV Urbani: unit not given here
[3] = test system: recombinant human anti-SARS-CoV antibody 03-018; assay type: binding; design: Binding of antibody 03-018 to linear peptides of the N protein of SARS-CoV Urbani / Binding of antibody 03-018 to looped/cyclic peptides of the N protein of SARS-CoV Urbani: unit not given here
[4] = test system: rabbit serum obtained by immunizing a rabbit with the SARS-CoV strain Frankfurt 1; assay type: binding; design: Binding of a rabbit serum to linear peptides / Binding of a rabbit serum to looped peptides / Rabbit serum linear peptides / Rabbit serum looped peptides / Binding of a rabbit serum to linear peptides of protein N of SARS-CoV Urbani (Rabbit serum linear peptides) / Binding of a rabbit serum to looped/cyclic peptides of protein N of SARS-CoV Urbani (Rabbit serum looped peptides): unit not given here

GGGETALALLLLDRL
Binding of serum 1a to linear peptide (PEPSCAN-ELISA) [1]: 0.2
Binding of serum 1a to looped/cyclic peptides of protein N of SARS-CoV Urbani [1]: 0.4
Binding of serum 1b to linear peptide (PEPSCAN-ELISA) [1]: 0.1
Binding of serum 1b to looped/cyclic peptides of protein N of SARS-CoV Urbani [1]: 0.3
Binding of serum 2 to linear peptide (PEPSCAN-ELISA) [1]: 0.1
Binding of serum 2 to looped/cyclic peptides of protein N of SARS-CoV Urbani [1]: 0.5
Binding of serum 6 to linear peptide (PEPSCAN-ELISA) [1]: 0.1
Binding of serum 6 to looped/cyclic peptides of protein N of SARS-CoV Urbani [1]: 0.2
Binding of serum 37 to linear peptide (PEPSCAN-ELISA) [1]: 0.7
Binding of serum 37 to looped/cyclic peptides of protein N of SARS-CoV Urbani [1]: 0.8
Binding of serum 62 to linear peptide (PEPSCAN-ELISA) [1]: 0.5
Binding of serum 62 to looped/cyclic peptides of protein N of SARS-CoV Urbani [1]: 0.7
Binding of serum London to linear peptide (PEPSCAN-ELISA) [1]: 0.4
Binding of serum London to looped/cyclic peptides of protein N of SARS-CoV Urbani [1]: 0.4
Binding of serum SARS-green to linear peptide (PEPSCAN-ELISA) [1]: 0.2
Binding of serum SARS-green to looped/cyclic peptides of protein N of SARS-CoV Urbani [1]: 0.3
Binding of serum SARS-yellow to linear peptide (PEPSCAN-ELISA) [1]: 0.6
Binding of serum SARS-yellow to looped/cyclic peptides of protein N of SARS-CoV Urbani [1]: 0.7
Binding of Control Serum Blood-Bank to Looped peptides [2]: 0.7
Binding of Control serum Blood-bank to linear peptides [2]: 0.5
Binding of Control serum LUMC to linear peptides [2]: 0.6
Binding of Control serum LUMC to looped peptides [2]: 0.8
Binding of antibody 03-018 to linear peptides of the N protein of SARS-CoV Urbani [3]: 0.1
Binding of antibody 03-018 to looped/cyclic peptides of the N protein of SARS-CoV Urbani [3]: 0.2
Binding of a rabbit serum to linear peptides of protein N of SARS-CoV Urbani (Rabbit serum linear peptides) [4]: 0.1
Binding of a rabbit serum to looped/cyclic peptides of protein N of SARS-CoV Urbani (Rabbit serum looped peptides) [4]: 0.7

GGSQASSRSSSRSRG
Binding of serum 1a to linear peptide (PEPSCAN-ELISA) [1]: 0.3
Binding of serum 1a to looped/cyclic peptides of protein N of SARS-CoV Urbani [1]: 0.3
Binding of serum 1b to linear peptide (PEPSCAN-ELISA) [1]: 0.1
Binding of serum 1b to looped/cyclic peptides of protein N of SARS-CoV Urbani [1]: 0.2
Binding of serum 2 to linear peptide (PEPSCAN-ELISA) [1]: 0.3
Binding of serum 2 to looped/cyclic peptides of protein N of SARS-CoV Urbani [1]: 0.4
Binding of serum 6 to linear peptide (PEPSCAN-ELISA) [1]: 0.4
Binding of serum 6 to looped/cyclic peptides of protein N of SARS-CoV Urbani [1]: 0.4
Binding of serum 37 to linear peptide (PEPSCAN-ELISA) [1]: 0.7
Binding of serum 37 to looped/cyclic peptides of protein N of SARS-CoV Urbani [1]: 0.5
Binding of serum 62 to linear peptide (PEPSCAN-ELISA) [1]: 0.7
Binding of serum 62 to looped/cyclic peptides of protein N of SARS-CoV Urbani [1]: 0.4
Binding of serum London to linear peptide (PEPSCAN-ELISA) [1]: 0.5
Binding of serum London to looped/cyclic peptides of protein N of SARS-CoV Urbani [1]: 0.4
Binding of serum SARS-green to linear peptide (PEPSCAN-ELISA) [1]: 0.7
Binding of serum SARS-green to looped/cyclic peptides of protein N of SARS-CoV Urbani [1]: 0.0
Binding of serum SARS-yellow to linear peptide (PEPSCAN-ELISA) [1]: 0.9
Binding of serum SARS-yellow to looped/cyclic peptides of protein N of SARS-CoV Urbani [1]: 0.3
Binding of Control Serum Blood-Bank to Looped peptides [2]: 0.6
Binding of Control serum Blood-bank to linear peptides [2]: 0.7
Binding of Control serum LUMC to linear peptides [2]: 0.8
Binding of Control serum LUMC to looped peptides [2]: 0.6
Binding of antibody 03-018 to linear peptides of the N protein of SARS-CoV Urbani [3]: 0.1
Binding of antibody 03-018 to looped/cyclic peptides of the N protein of SARS-CoV Urbani [3]: 0.2
Binding of a rabbit serum to linear peptides of protein N of SARS-CoV Urbani (Rabbit serum linear peptides) [4]: 0.2
Binding of a rabbit serum to looped/cyclic peptides of protein N of SARS-CoV Urbani (Rabbit serum looped peptides) [4]: 0.5

GIVWVATEGALNTPK
Binding of serum 1a to linear peptides of protein N of SARS-CoV Urbani [1]: 0.3
Binding of serum 1a to looped/cyclic peptides of protein N of SARS-CoV Urbani [1]: 0.3
Binding of serum 1b to linear peptides of protein N of SARS-CoV Urbani [1]: 0.2
Binding of serum 1b to looped/cyclic peptides of protein N of SARS-CoV Urbani [1]: 0.1
Binding of serum 2 to linear peptides of protein N of SARS-CoV Urbani [1]: 0.5
Binding of serum 2 to looped/cyclic peptides of protein N of SARS-CoV Urbani [1]: 0.4
Binding of serum 6 to linear peptides of protein N of SARS-CoV Urbani [1]: 0.3
Binding of serum 6 to looped/cyclic peptides of protein N of SARS-CoV Urbani [1]: 0.2
Binding of serum 37 to linear peptides of protein N of SARS-CoV Urbani [1]: 0.9
Binding of serum 37 to looped/cyclic peptides of protein N of SARS-CoV Urbani [1]: 0.5
Binding of serum 62 to linear peptides of protein N of SARS-CoV Urbani [1]: 0.9
Binding of serum 62 to looped/cyclic peptides of protein N of SARS-CoV Urbani [1]: 0.4
Binding of serum London to linear peptides of protein N of SARS-CoV Urbani [1]: 0.6
Binding of serum London to looped/cyclic peptides of protein N of SARS-CoV Urbani [1]: 0.4
Binding of serum SARS-green to linear peptides of protein N of SARS-CoV Urbani [1]: 1.0
Binding of serum SARS-green to looped/cyclic peptides of protein N of SARS-CoV Urbani [1]: 0.3
Binding of serum SARS-yellow to linear peptides of protein N of SARS-CoV Urbani [1]: 0.8
Binding of serum SARS-yellow to looped/cyclic peptides of protein N of SARS-CoV Urbani [1]: 0.3
Binding of Control Serum Blood-Bank to Looped peptides [2]: 0.5
Binding of Control serum Blood-bank to linear peptides [2]: 1.0
Binding of Control serum LUMC to linear peptides [2]: 1.0
Binding of Control serum LUMC to looped peptides [2]: 0.5
Binding of antibody 03-018 to linear peptides of the N protein of SARS-CoV Urbani [3]: 0.1
Binding of antibody 03-018 to looped/cyclic peptides of the N protein of SARS-CoV Urbani [3]: 0.2
Binding of a rabbit serum to linear peptides of protein N of SARS-CoV Urbani (Rabbit serum linear peptides) [4]: 0.2
Binding of a rabbit serum to looped/cyclic peptides of protein N of SARS-CoV Urbani (Rabbit serum looped peptides) [4]: 0.5
